Measurements published in patent USRE48267E1, “Variants of C-type natriuretic peptide” (priority 2009, dated 2020).
Where a SMILES comes first, the peptide text is derived from it. Bridges are numbered along the chain shown (N, C = ends). The star is where a group is joined. Heptanoyl = CCCCCCC(=O)*

Tests used:
Recombinant human NEP = Recombinant human NEP (Homo sapiens, UniProt P08473); experiment: in vitro NEP cleavage assay (disappearance of non-cleaved CNP variant); conditions: for NEP Cleavage (t1/2, min): 100 uM peptide, 1 ug/mL NEP, 0.1 M Tris pH 7, 37° C., adjusted t1/2, CNP22 normalized to 80 min
Recombinant human NEP, sequence (P08473 whole entry): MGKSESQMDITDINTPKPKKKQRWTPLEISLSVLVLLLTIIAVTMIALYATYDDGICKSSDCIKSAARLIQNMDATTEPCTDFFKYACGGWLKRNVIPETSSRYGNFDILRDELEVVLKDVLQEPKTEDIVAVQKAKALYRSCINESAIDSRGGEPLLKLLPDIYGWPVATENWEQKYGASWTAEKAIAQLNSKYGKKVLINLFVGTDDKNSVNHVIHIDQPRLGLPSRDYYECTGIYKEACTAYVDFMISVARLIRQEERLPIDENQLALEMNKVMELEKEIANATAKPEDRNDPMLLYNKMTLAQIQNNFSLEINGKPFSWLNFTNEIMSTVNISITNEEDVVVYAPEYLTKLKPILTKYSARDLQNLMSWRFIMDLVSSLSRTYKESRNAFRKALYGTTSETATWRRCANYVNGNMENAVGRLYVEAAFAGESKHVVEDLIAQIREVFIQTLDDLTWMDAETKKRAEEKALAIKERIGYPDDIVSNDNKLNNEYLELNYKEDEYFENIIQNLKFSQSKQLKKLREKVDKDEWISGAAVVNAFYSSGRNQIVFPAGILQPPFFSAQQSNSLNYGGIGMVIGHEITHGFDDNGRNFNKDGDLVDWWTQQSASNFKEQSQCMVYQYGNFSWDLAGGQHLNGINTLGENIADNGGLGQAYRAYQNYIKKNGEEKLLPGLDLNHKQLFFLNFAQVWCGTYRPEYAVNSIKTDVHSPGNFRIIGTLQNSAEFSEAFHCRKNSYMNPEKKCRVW
Description: To determine the effects of amino acid substitutions, amino acid extensions, backbone modifications, side chain modifications and PEGylation on the susceptibility of CNP variants to neutral endopeptidase (NEP) cleavage, peptide cleavage assays were carried out using an in vitro assay that monitored disappearance of the non-cleaved CNP variant.
Recombinant human NEP (1 ug/mL final concentration) was added to 100 uM CNP variant diluted in 0.1 M Tris, pH 7. The reaction mixture was incubated at 37° C. for various periods of time, and the reaction was quenched with EDTA (10 mM final) followed by heat denaturation. The reaction mixture was reduced and then the reaction products were analyzed using HPLC and mass spectroscopy. The half-life of the CNP variant was calculated based on the disappearance of intact CNP variant over time.

NPR-B = target: T1, NPR-B (Mus musculus, UniProt Q6VVW5); experiment: stimulation of cGMP production in NIH3T3 cells; format: cell-based, murine; conditions: for cGMP Response rel. to 1 uM CNP22, 10 nM: NIH3T3 cells exposed to 10 nM peptide; for cGMP Response rel. to 1 uM CNP22, 10 nM / cGMP Response rel. to 1 uM CNP22, 1 uM: normalized to cell number and cGMP production in the presence of 1 uM wtCNP22; for cGMP Response rel. to 1 uM CNP22, 1 uM: NIH3T3 cells exposed to 1 uM peptide
T1 construct: Murine NIH3T3 cells express endogenously the CNP signaling receptor, NPR-B; endogenous in cells; host or cells: NIH3T3
T1 sequence (Q6VVW5 17-1047): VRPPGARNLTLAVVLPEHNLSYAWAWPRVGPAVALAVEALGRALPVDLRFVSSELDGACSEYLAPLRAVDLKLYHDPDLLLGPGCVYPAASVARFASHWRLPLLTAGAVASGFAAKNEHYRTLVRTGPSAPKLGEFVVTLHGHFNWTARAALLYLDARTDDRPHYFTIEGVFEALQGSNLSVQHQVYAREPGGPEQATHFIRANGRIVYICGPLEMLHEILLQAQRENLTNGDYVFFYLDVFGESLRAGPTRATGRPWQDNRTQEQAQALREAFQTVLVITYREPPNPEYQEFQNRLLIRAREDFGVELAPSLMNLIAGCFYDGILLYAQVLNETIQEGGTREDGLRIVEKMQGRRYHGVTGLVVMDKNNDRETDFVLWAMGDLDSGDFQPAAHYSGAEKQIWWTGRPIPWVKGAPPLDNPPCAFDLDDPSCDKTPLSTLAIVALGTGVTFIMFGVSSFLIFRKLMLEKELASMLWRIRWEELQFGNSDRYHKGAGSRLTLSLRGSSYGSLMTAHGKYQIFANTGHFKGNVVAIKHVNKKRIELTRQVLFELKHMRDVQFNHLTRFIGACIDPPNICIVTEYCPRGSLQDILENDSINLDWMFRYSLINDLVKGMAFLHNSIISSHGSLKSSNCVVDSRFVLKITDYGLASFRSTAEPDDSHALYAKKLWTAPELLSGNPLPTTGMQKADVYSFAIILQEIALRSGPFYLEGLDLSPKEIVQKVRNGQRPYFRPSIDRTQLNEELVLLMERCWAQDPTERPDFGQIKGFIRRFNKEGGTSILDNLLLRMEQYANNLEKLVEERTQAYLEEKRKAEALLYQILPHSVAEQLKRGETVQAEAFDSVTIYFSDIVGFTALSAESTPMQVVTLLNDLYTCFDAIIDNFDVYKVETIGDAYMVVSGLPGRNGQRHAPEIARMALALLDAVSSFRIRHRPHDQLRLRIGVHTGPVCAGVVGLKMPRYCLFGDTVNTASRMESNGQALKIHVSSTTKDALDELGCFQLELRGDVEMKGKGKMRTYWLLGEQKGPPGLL
Description: To determine the functional activity of CNP variants, the production of cGMP was measured in NIH3T3 cells exposed to the CNP variants. Murine NIH3T3 cells express endogenously the CNP signaling receptor, NPR-B, which shares 98% protein sequence identity with human NPR-B. NIH3T3 cells were cultured in high glucose Dulbecco's Modified Eagle Medium supplemented with 10% fetal calf serum and antibiotics at 37° C. with 5% CO2). Twenty four to 48 hours prior to signaling, cells were passaged to 12-well plates with a density of 2-5×10^5 cells per well at the time of the assay. CNP variants were resuspended in 1 mM HCl to a stock concentration of 1 mg/mL (455 uM for wtCNP22) and subsequently diluted to a 30 uM working stock solution with phosphate-buffered saline (PBS). Ten-fold serial dilutions were prepared in phosphate-buffered saline. Culture medium was removed from the cells and replaced with 0.4 mL PBS/Dulbecco's modified Eagle medium (50/50, v/v) containing 0.75 mM isobutylmethylxanine. Plates were incubated at 37° C., 5% CO2 for 15 minutes before addition of 0.2 mL CNP variant in PBS and continued incubation at 37° C. for 15 minutes. Reactions were stopped by the addition of 0.2 mL lysis buffer supplied with the CatchPoint cGMP assay kit (Molecular Devices), and cGMP production was determined with the CatchPoint cGMP Assay (Molecular Devices). All stimulation experiments were performed in duplicate.
Tables 1-4 summarize the ability of CNP variants having backbone or side chain modifications, amino acid substitutions, N-terminal amino acid extensions, and/or N-terminal PEGylation, respectively, to stimulate cGMP production in NIH3T3 cells. In all four tables, the values for cGMP production in NIH3T3 cells exposed to 10 nM or 1 uM CNP variant are normalized to cell number and cGMP production in the presence of 1 uM wtCNP22.

| Structure (SMILES) | cGMP Response rel. to 1 uM CNP22, 10 nM (NPR-B) | cGMP Response rel. to 1 uM CNP22, 1 uM (NPR-B) | resistance to NEP cleavage (in words) (Recombinant human NEP) | NEP Cleavage (t1/2, min) (Recombinant human NEP) | NPR-B stimulation activity / cGMP production compared with wtCNP22 (in words) (NPR-B; NIH3T3 cells) |
| --- | --- | --- | --- | --- | --- |
| CCCCCCC(=O)N[C@@H](CCC(=O)O)C(=O)N[C@@H](CC(C)C)C(=O)N[C@@H](CO)C(=O)N[C@@H](CCCCN)C(=O)NCC(=O)N[C@H]1CSSC[C@@H](C(=O)O)NC(=O)CNC(=O)[C@H](CC(C)C)NC(=O)CNC(=O)[C@H](CO)NC(=O)[C@H](CCSC)NC(=O)[C@H](CO)NC(=O)CNC(=O)[C@H]([C@@H](C)CC)NC(=O)[C@H](CCCNC(=N)N)NC(=O)[C@H](CC(=O)O)NC(=O)[C@H](CC(C)C)NC(=O)[C@H](CCCCN)NC(=O)[C@H](CC(C)C)NC(=O)CNC(=O)[C@H](Cc2ccccc2)NC1=O [Analog BB, Heptanoic acid (N-term.)-CNP22, G1E] (Heptanoyl-ELSKGCFGLKLDRIGSMSGLGC-OH; disulfide 6-22) | 32 ± 4 | 84 ± 19 |  | 45 to 65 min | comparable NPR-B stimulation activity as wtCNP22 |
| CC[C@H](C)[C@@H]1NC(=O)[C@H](CCCNC(=N)N)NC(=O)[C@H](CC(=O)O)NC(=O)[C@H](CC(C)C)NC(=O)[C@H](CCCCN)NC(=O)[C@H](CC(C)C)N(C)C(=O)CNC(=O)[C@H](Cc2ccccc2)NC(=O)[C@@H](NC(=O)CNC(=O)[C@H](CCCCN)NC(=O)[C@H](CO)NC(=O)[C@H](CC(C)C)NC(=O)CN)CSSC[C@@H](C(=O)O)NC(=O)CNC(=O)[C@H](CC(C)C)N(C)C(=O)CNC(=O)[C@H](CO)NC(=O)[C@H](CCSC)NC(=O)[C@H](CO)NC(=O)CNC1=O [Analog K, CNP22, N-methyl-L9, N-methyl-L20] | 1 | 1 |  | 80 min |  |
| CC[C@H](C)[C@@H]1NC(=O)[C@H](CCCNC(=N)N)NC(=O)[C@H](CC(=O)O)NC(=O)[C@H](CC(C)C)NC(=O)[C@H](CCCCN)NC(=O)[C@H](CC(C)C)NC(=O)CNC(=O)[C@H](Cc2ccccc2)NC(=O)[C@@H](NC(=O)CNC(=O)[C@H](CCCNC(=N)N)NC(=O)[C@H](CO)NC(=O)[C@H](CC(C)C)NC(=O)CN)CSSC[C@@H](C(=O)O)NC(=O)CNC(=O)[C@H](CC(C)C)NC(=O)CNC(=O)[C@H](CO)NC(=O)[C@H](CCSC)NC(=O)[C@H](CO)NC(=O)[C@H](CC(N)=O)NC1=O [Analog BJ, CNP22, K4R, G15N] (H-GLSRGCFGLKLDRINSMSGLGC-OH; disulfide 6-22; N-terminus and C-terminus assumed) | 4 | 41 | greatest resistance to NEP cleavage |  |  |
| CC[C@H](C)[C@@H]1NC(=O)[C@H](CCCNC(=N)N)NC(=O)[C@H](CC(=O)O)NC(=O)[C@H](CC(C)C)NC(=O)[C@H](CCCCN)NC(=O)[C@H](CC(C)C)NC(=O)CNC(=O)[C@H](Cc2ccccc2)NC(=O)[C@@H](NC(=O)CNC(=O)[C@H](CCCCN)NC(=O)[C@H](CO)NC(=O)[C@H](CC(C)C)NC(=O)CNC(=O)[C@H](CCC(N)=O)NC(=O)[C@H](CCC(N)=O)NC(=O)[C@H](CC(N)=O)NC(=O)[C@H](C)NC(=O)CNC(=O)[C@H](Cc2c[nH]cn2)NC(=O)[C@@H]2CCCN2C(=O)[C@H](Cc2c[nH]cn2)NC(=O)[C@H](CCC(N)=O)NC(=O)[C@H](CCC(=O)O)NC(=O)[C@H](Cc2c[nH]cn2)NC(=O)[C@H](CO)NC(=O)[C@H](Cc2c[nH]cn2)NC(=O)[C@H](Cc2c[nH]cn2)NC(=O)CN)CSSC[C@@H](C(=O)O)NC(=O)CNC(=O)[C@H](CC(C)C)NC(=O)CNC(=O)[C@H](CO)NC(=O)[C@H](CCSC)NC(=O)[C@H](CO)NC(=O)CNC1=O [Analog CQ] (H-GHHSHEQHPHGANQQGLSKGCFGLKLDRIGSMSGLGC-OH; disulfide 21-37; N-terminus and C-terminus assumed) | 16 | 95 |  |  |  |

The next lines start with results.

| cGMP Response rel. to 1 uM CNP22, 10 nM (NPR-B) | cGMP Response rel. to 1 uM CNP22, 1 uM (NPR-B) | resistance to NEP cleavage (in words) (Recombinant human NEP) | Structure (SMILES) | NEP Cleavage (t1/2, min) (Recombinant human NEP) | NPR-B stimulation activity / cGMP production compared with wtCNP22 (in words) (NPR-B; NIH3T3 cells) |
| --- | --- | --- | --- | --- | --- |
| 13 ± 1 | 71 ± 11 | greatest resistance to NEP cleavage | CC[C@H](C)[C@@H]1NC(=O)[C@H](CCCNC(=N)N)NC(=O)[C@H](CC(=O)O)NC(=O)[C@H](CC(C)C)NC(=O)[C@H](CCCCN)NC(=O)[C@H](CC(C)C)NC(=O)CNC(=O)[C@H](Cc2ccccc2)NC(=O)[C@@H](NC(=O)CNC(=O)[C@H](CCCNC(=N)N)NC(=O)[C@H](CO)NC(=O)[C@H](CC(C)C)NC(=O)CN)CSSC[C@@H](C(=O)O)NC(=O)CNC(=O)[C@H](CC(C)C)NC(=O)CNC(=O)[C@H](CO)NC(=O)[C@H](CCSC)NC(=O)[C@H](CO)NC(=O)[C@H](CO)NC1=O [Analog BK, CNP22, K4R, G15S] (H-GLSRGCFGLKLDRISSMSGLGC-OH; disulfide 6-22; N-terminus and C-terminus assumed) | ≥160 min |  |
| 18 | 10 | substantially shorter half-life | CC[C@H](C)[C@@H]1NC(=O)[C@H](CCCNC(=N)N)NC(=O)[C@H](CC(=O)O)NC(=O)[C@H](CC(C)C)N(C)C(=O)[C@H](CCCCN)NC(=O)[C@H](CC(C)C)N(C)C(=O)CNC(=O)[C@H](Cc2ccccc2)NC(=O)[C@@H](NC(=O)CNC(=O)[C@H](CCCCN)NC(=O)[C@H](CO)NC(=O)[C@H](CC(C)C)NC(=O)CN)CSSC[C@@H](C(=O)O)NC(=O)CNC(=O)[C@H](CC(C)C)N(C)C(=O)CNC(=O)[C@H](CO)NC(=O)[C@H](CCSC)NC(=O)[C@H](CO)NC(=O)CNC1=O [Analog L, CNP22, N-methyl-L9, N-methyl-L11, N-methyl-L20] |  |  |
| 1 | 11 | greatest resistance to NEP cleavage | CC[C@H](C)[C@@H]1NC(=O)[C@H](CCCNC(=N)N)NC(=O)[C@H](CC(=O)O)NC(=O)[C@H](CC(C)C)N(C)C(=O)[C@H](CCCCN)NC(=O)[C@H](CC(C)C)N(C)C(=O)CNC(=O)[C@H](Cc2ccccc2)NC(=O)[C@@H](NC(=O)CNC(=O)[C@H](CCCCN)NC(=O)[C@H](CO)NC(=O)[C@H](CC(C)C)NC(=O)CN)CSSC[C@@H](C(=O)O)NC(=O)CNC(=O)[C@H](CC(C)C)NC(=O)CNC(=O)[C@H](CO)NC(=O)[C@H](CCSC)NC(=O)[C@H](CO)NC(=O)CNC1=O [Analog M, CNP22, N-methyl-L9, N-methyl-L11] | >>160 min |  |
